DC50 data for 14 molecules are collected here from US20250051347A1, “BIFUNCTIONAL CHIMERIC HETEROCYCLIC COMPOUND AND USE THEREOF AS ANDROGEN RECEPTOR DEGRADER” (Hinova Pharmaceuticals, Inc., priority 2021, published 2025).

The test deals with T1, androgen receptor (AR) splicing variant AR-v7 (Homo sapiens, UniProt P10275).
T1 construct: The degradation activity of compounds on AR-v7 in 22RV1 cells; host or cells: 22RV1 cells
T1 sequence (P10275 1-644 isoform P10275-3): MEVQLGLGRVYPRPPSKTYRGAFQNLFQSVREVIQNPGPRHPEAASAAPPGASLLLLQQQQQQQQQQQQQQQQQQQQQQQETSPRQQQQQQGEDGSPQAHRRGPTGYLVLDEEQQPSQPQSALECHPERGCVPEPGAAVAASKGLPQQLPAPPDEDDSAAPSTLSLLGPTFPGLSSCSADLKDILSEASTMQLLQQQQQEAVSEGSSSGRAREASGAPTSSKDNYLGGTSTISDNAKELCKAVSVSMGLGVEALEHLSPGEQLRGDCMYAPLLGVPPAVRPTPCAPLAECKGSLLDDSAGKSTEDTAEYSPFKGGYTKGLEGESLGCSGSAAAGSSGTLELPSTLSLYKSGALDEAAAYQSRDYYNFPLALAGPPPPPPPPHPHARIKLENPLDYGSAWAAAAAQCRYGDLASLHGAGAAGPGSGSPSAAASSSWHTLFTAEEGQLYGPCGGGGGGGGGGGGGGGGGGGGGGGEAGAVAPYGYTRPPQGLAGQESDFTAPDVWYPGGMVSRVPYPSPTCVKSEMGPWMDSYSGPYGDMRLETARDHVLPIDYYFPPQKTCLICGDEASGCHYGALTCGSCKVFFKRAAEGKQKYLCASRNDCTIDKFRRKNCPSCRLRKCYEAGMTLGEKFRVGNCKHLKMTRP
Briefly: Degradation activity on androgen receptor splicing variant AR-v7 in 22RV1 cells (ELISA). In kind it is cell-based. To be noted: AR-v7 degradation in 22RV1 cells, 48 h, class symbols.
As usually defined, the DC50 is the concentration at which degradation of the target reaches its halfway point. A higher DC50 goes with a less potent degrader. `CC(C)(c1ccc(OCc2ccnc(N3CC4(COC4)C3)n2)cc1)c1ccc(O[C@H]2CCC[C@H]2Nc2ccc3c(c2)C(=O)N(C2CCC(=O)NC2=O)C3=O)cc1` (some centres unmarked) [Example 315] yielded a DC50 of 1 to 5 µM.
`CC(C)(c1ccc(Oc2ncc(I)cn2)cc1)c1ccc(O[C@H]2C[C@@H](Nc3ccc4c(c3)C(=O)N(C3CCC(=O)NC3=O)C4=O)C2)cc1` (some centres unmarked) [Example 316] returned a DC50 of 0.011 to 0.1 µM.
`CC(C)(c1ccc(Oc2ccc(N3CC4(COC4)C3)nn2)cc1)c1ccc(O[C@H]2C[C@@H](Nc3ccc4c(c3)C(=O)N(C3CCC(=O)NC3=O)C4=O)C2)cc1` (some centres unmarked) [Example 317] displayed a DC50 of 0.011 to 0.1 µM.
Take `CC(C)(c1ccc(CCNc2ccc3c(c2)C(=O)N(C2CCC(=O)NC2=O)C3=O)cc1)c1ccc(OCc2ccnc(N3CC4(COC4)C3)n2)cc1` (centres unmarked) [Example 318, 5-((4-(2-(4-((2-(2-oxa-6-azaspiro[3.3]heptan-6-yl)pyrimidin-4-yl)methoxy)phenyl)propan-2-yl)phenylethyl)amino)-2-(2,6-dioxopiperidin-3-yl)isoindolin-1,3-dione]: the DC50 is 0.101 to 1 µM.
The figure for `CC(C)(c1ccc(Oc2nc(-n3ccnn3)ccc2F)cc1)c1ccc(O[C@H]2C[C@H](Nc3ccc4c(c3)C(=O)N(C3CCC(=O)NC3=O)C4=O)C2)cc1` (some centres unmarked) [Example 319] is 0.011 to 0.1 µM; for `CC(C)(c1ccc(Oc2nc(-n3nccn3)ccc2F)cc1)c1ccc(O[C@H]2C[C@H](Nc3ccc4c(c3)C(=O)N(C3CCC(=O)NC3=O)C4=O)C2)cc1` (some centres unmarked) [Example 320] it is 0.011 to 0.1 µM; for `CC(C)(c1ccc(Oc2ccc(-n3ccnn3)nn2)cc1)c1ccc(O[C@H]2C[C@H](Nc3ccc4c(c3)C(=O)N(C3CCC(=O)NC3=O)C4=O)C2)cc1` (some centres unmarked) [Example 325] it is 0.011 to 0.1 µM.
On to `Cc1nc(-c2ncc(Oc3ccc(C(C)(C)c4ccc(OC[C@@H]5CCN5c5ccc6c(c5)C(=O)N(C5CCC(=O)NC5=O)C6=O)cc4)cc3)cn2)no1` (stereo partly drawn) [Example 326, 2-(2,6-dioxopiperidin-3-yl)-5-((S)-2-((4-(2-(4-((2-(5-methyl-1,2,4-oxadiazol-3-yl)pyrimidin-5-yl)oxy)phenyl)propan-2-yl)phenoxy)methyl)azetidin-1-yl)isoindolin-1,3-dione], for which the DC50 was 0.011 to 0.1 µM.
The molecule `Cc1nc(-c2cnc(Oc3ccc(C(C)(C)c4ccc(O[C@H]5C[C@H](Nc6ccc7c(c6)C(=O)N(C6CCC(=O)NC6=O)C7=O)C5)cc4)cc3)nc2)no1` (some centres unmarked) [Example 327] showed a DC50 of 0.011 to 0.1 µM.
For the molecule `CC(C)(c1ccc(Oc2ncc(-n3nccn3)cn2)cc1)c1ccc(O[C@H]2C[C@@H](Nc3ccc4c(c3)C(=O)N(C3CCC(=O)NC3=O)C4=O)C2)cc1` (some centres unmarked) [Example 329], the DC50 lay in the range of 0.011 to 0.1 µM.
In turn, `Cc1nc(-c2ccc(Oc3ccc(C(C)(C)c4ccc(O[C@H]5C[C@H](Nc6ccc7c(c6)C(=O)N(C6CCC(=O)NC6=O)C7=O)C5)cc4)cc3)cc2)no1` (some centres unmarked) [Example 332, 2-(2,6-dioxopiperidin-3-yl)-5-((1r,3r)-3-(4-(2-(4-(4-(5-methyl-1,2,4-oxadiazol-3-yl)phenoxy)phenyl)propan-2-yl)phenoxy)cyclobutyl)aminoisoindolin-1,3-dione] returned a DC50 of 0.011 to 0.1 µM.
The figure for `CC(C)(c1ccc(Oc2ccc(-n3nccn3)cc2)cc1)c1ccc(O[C@H]2C[C@H](Nc3ccc4c(c3)C(=O)N(C3CCC(=O)NC3=O)C4=O)C2)cc1` (some centres unmarked) [Example 334] is 0.011 to 0.1 µM; for `Cc1nc(-c2ccc(Oc3ccc(C(C)(C)c4ccc(OC5CC(Nc6ccc7c(c6)C(=O)N(C6CCC(=O)N(C)C6=O)C7=O)C5)cc4)cc3)nn2)no1` (centres unmarked) [Example 335, 5-((1r,3r)-3-(4-(2-(4-((6-(5-methyl-1,2,4-oxadiazol-3-yl)pyridazine-3-yl)oxy)phenyl)propan-2-yl)phenoxy)cyclobutyl)amino)-2-(1-methyl-2,6-dioxopiperidin-3-yl)isoindolin-1,3-dione] it is 0.101 to 1 µM.
The figure for `Cc1nc(-c2cnc(Oc3ccc(C(C)(C)c4ccc(O[C@H]5C[C@@H](Nc6ccc7c(c6)C(=O)N(C6CCC(=O)NC6=O)C7=O)C5)cc4)cc3)nc2)no1` (some centres unmarked) [Example 336] is 0.011 to 0.1 µM.
